The values below come from US9040545B2, “Heterocyclyl pyrazolopyrimidine analogues as selective JAK inhibitors” (Cellzome Limited, priority 2010, dated 2015).

For one assay, the target named is T1, JAK2 (Homo sapiens, UniProt O60674).
T1 construct: endogenous in cells; host or cells: mixed Molt4/Ramos lysate (1:2)
Nature of the assay: Kinobeads assay, JAK2. Type of assay: binding. The note with it: mixed Molt4/Ramos lysate, read-out: Inhibition values (IC50) JAK2. Put shortly:
(§1)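 Competition binding in mixed Molt4/Ramos cell lysate (1:2, 10 mg/mL protein) with Kinobeads carrying immobilized aminopyrido-pyrimidine ligand, 3 h in cold room; 9-step 1:3 compound dilution series from 5 mM DMSO stock. Bead-bound JAK2/JAK3 eluted and quantified by antibody dot blot with infrared detection; IC50 from dose-response curves.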

The target of a further assay is T2, JAK3 (Homo sapiens, UniProt P52333).
T2 construct: endogenous in cells; host or cells: mixed Molt4/Ramos lysate (1:2)
T2 sequence (P52333 1-1124): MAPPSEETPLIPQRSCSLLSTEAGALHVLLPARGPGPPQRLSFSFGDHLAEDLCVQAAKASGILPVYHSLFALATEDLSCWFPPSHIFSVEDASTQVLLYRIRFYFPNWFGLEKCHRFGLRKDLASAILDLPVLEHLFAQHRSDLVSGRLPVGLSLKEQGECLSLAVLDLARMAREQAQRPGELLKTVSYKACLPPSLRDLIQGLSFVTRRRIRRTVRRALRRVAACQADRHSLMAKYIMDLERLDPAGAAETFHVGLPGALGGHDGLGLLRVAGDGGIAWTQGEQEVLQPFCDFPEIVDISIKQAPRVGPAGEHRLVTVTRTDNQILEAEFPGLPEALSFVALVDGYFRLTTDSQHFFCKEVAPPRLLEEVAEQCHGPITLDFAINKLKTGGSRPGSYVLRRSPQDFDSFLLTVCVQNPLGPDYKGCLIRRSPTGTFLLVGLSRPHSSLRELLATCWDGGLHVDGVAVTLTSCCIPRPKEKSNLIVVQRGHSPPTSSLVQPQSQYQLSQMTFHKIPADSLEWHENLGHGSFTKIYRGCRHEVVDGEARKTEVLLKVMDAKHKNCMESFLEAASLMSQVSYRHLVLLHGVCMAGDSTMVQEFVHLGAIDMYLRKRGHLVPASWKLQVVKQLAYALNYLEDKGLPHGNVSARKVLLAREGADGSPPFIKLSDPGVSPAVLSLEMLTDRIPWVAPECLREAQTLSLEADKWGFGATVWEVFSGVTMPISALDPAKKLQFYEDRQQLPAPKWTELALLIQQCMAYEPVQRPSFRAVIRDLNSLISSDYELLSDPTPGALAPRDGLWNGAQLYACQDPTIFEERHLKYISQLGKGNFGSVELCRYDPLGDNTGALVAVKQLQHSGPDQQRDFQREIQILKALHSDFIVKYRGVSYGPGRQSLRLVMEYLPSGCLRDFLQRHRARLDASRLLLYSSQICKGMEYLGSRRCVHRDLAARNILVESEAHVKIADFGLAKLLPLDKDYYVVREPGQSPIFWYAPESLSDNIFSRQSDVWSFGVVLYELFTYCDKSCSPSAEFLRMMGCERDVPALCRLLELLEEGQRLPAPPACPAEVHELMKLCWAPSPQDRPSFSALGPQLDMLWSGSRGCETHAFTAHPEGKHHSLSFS
Nature of the assay: Kinobeads assay, JAK3. The note with it: mixed Molt4/Ramos lysate, read-out: Inhibition values (IC50) JAK3. Type of assay: binding. Put shortly:
as §1

Some results are limits rather than exact numbers.

T1 sequence (O60674 whole entry): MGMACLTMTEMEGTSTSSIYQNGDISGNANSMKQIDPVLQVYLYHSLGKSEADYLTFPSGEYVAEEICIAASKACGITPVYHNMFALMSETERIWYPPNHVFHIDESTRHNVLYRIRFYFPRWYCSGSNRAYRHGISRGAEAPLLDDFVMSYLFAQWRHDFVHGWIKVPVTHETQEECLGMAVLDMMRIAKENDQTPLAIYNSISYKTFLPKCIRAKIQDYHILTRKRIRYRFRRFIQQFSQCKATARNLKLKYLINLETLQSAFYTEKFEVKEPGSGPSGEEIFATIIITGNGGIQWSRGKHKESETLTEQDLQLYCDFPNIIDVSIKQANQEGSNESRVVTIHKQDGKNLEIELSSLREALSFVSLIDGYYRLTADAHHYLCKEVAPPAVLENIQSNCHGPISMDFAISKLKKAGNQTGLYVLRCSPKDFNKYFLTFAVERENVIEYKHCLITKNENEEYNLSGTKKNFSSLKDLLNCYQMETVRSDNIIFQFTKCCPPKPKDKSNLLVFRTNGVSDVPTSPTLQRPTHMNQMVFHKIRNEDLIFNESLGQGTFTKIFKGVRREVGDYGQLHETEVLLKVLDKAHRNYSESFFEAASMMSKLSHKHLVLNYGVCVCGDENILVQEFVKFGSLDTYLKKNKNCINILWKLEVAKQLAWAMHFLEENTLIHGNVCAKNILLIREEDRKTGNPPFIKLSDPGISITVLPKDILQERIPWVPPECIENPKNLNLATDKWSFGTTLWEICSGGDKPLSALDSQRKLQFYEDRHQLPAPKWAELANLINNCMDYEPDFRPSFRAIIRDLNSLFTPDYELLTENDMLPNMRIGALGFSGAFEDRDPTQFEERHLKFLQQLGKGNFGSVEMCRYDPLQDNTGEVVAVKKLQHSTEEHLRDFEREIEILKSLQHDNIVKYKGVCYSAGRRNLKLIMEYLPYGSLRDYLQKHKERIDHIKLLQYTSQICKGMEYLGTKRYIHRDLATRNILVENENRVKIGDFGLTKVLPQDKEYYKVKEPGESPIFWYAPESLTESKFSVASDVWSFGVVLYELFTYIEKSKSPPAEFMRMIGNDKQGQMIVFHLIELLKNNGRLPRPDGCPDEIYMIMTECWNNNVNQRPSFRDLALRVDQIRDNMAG

As to `O=C1COCCN1c1cc(F)cc(Cn2ncc3cnc(Nc4cnn(CC5CCNC5)c4)nc32)c1` (stereo not drawn) [Example 101, 4-(3-fluoro-5-((6-((1-(pyrrolidin-3-ylmethyl)-1H-pyrazol-4-yl)amino)-1H-pyrazolo[3,4-d]pyrimidin-1-yl)methyl)phenyl)morpholin-3-one], the concentration for half-maximal inhibition (IC50) on JAK2 was 1 to 10 µM; at JAK3, under 100 nM.
In the same order, the values of `Cn1cc(Nc2ncc3cnn(Cc4cccc(N5CC6CCC(C5)O6)c4)c3n2)cn1` [Example 26] are at least 10 µM and under 100 nM.
`CCCn1cc(-c2cccc(Cn3ncc4cnc(Nc5cnn(C)c5)nc43)c2)cn1` [Example 119, N-(1-methyl-1H-pyrazol-4-yl)-1-(3-(1-propyl-1H-pyrazol-4-yl)benzyl)-1H-pyrazolo[3,4-d]pyrimidin-6-amine]: the values for the half-maximal inhibitory concentration (IC50) at JAK2 and at JAK3 were at least 10 µM and under 100 nM, respectively.
In the same order, the values of `Cc1c(Cn2ncc3cnc(Nc4cnn(C)c4)nc32)cccc1N1CCOCC1` [Example 11, N-(1-Methyl-1H-pyrazol-4-yl)-1-(2-methyl-3-morpholinobenzyl)-1H-pyrazolo[3,4-d]pyrimidin-6-amine] are at least 10 µM and under 100 nM.
In the same order, the values of `Cn1cc(Nc2ncc3cnn(Cc4cc(-c5cnn(C)c5)cc(F)c4F)c3n2)cn1` [Example 126, 1-(2,3-difluoro-5-(1-methyl-1H-pyrazol-4-yl)benzyl)-N-(1-methyl-1H-pyrazol-4-yl)-1H-pyrazolo[3,4-d]pyrimidin-6-amine] are at least 10 µM and under 100 nM.
In the same order, the values of `Cn1cc(Nc2ncc3cnn(Cc4cccc(N5CCOCC5=O)c4)c3n2)cn1` [Example 27, 4-(3-((6-((1-Methyl-1H-pyrazol-4-yl)amino)-1H-pyrazolo[3,4-d]pyrimidin-1-yl)methyl)phenyl)morpholin-3-one] are 1 to 10 µM and under 100 nM.
Take `Cn1cc(Nc2ncc3cnn(Cc4c(F)c(F)cc(C(=O)N5CCOCC5)c4F)c3n2)cn1` [Example 110, morpholino(2,4,5-trifluoro-3-((6-((1-methyl-1H-pyrazol-4-yl)amino)-1H-pyrazolo[3,4-d]pyrimidin-1-yl)methyl)phenyl)methanone]: the IC50 is 0.1 to 1 µM on JAK2 and under 100 nM at JAK3.
With `CN(C)CCCn1cc(Nc2ncc3cnn(Cc4cccc(N5CCOCC5)c4)c3n2)cn1` [Example 4, N-(1-(3-(Dimethylamino)propyl)-1H-pyrazol-4-yl)-1-(3-morpholinobenzyl)-1H-pyrazolo[3,4-d]pyrimidin-6-amine], the figures for the half-maximal inhibitory concentration (IC50) at JAK2 and at JAK3 were 1 to 10 µM and under 100 nM, respectively.
The like results for `Cn1cc(Nc2ncc3cnn(Cc4cccc(-c5cnn(C)c5)c4)c3n2)cn1` [Example 115, N-(1-methyl-1H-pyrazol-4-yl)-1-(3-(1-methyl-1H-pyrazol-4-yl)benzyl)-1H-pyrazolo[3,4-d]pyrimidin-6-amine] were, in that order, 1 to 10 µM and under 100 nM.
